Reference: patent US9828350B2, “5,6-dihydro-2H-[1,4]oxazin-3-yl-amine derivatives useful as inhibitors of beta-secretase (BACE)” (Janssen Pharmaceutica NV, priority 2010, dated 2017)
Structures can show the parent of a compound that is named as a salt.

Key:
Abeta 1-42 = test: Cellular αLisa assay in SKNBE2 cells, Abeta 1-42; format: cell-based, human; conditions: incubated for 18 hours; for IC50: Homo sapiens, SKNBE2, 18 h, read-out: Cellular αLisa assay in SKNBE2 cells Abeta 42 pIC50 (converted)
Outline: (§1)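 Human neuroblastoma SKNBE2 cells expressing wild-type hAPP695 were incubated with compound for 18 hours. Secreted Abeta total and Abeta 1-42 in medium were quantified by sandwich αLisa: biotinylated AbN/25 on streptavidin donor beads with Ab4G8 (total) or cAb42/26 (1-42) acceptor beads. Light emission read after 1 hour (ex 650 nm, em 615 nm).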

Abeta total = test: Cellular αLisa assay in SKNBE2 cells, Abeta total; format: cell-based, human; conditions: incubated for 18 hours; for IC50: Homo sapiens, SKNBE2, 18 h, read-out: Cellular αLisa assay in SKNBE2 cells Abetatotal pIC50 (converted)
Outline: as §1

[1] = biological target: recombinant BACE1 protein (Homo sapiens, UniProt P56817); test: Biochemical FRET based assay; conditions: recombinant BACE1 1 μg/ml, 120 minutes at room temperature, pH 5.0; for IC50: read-out: Biochemical FRET based assay pIC50 (converted)
Sequence of recombinant BACE1 protein (P56817 46-501): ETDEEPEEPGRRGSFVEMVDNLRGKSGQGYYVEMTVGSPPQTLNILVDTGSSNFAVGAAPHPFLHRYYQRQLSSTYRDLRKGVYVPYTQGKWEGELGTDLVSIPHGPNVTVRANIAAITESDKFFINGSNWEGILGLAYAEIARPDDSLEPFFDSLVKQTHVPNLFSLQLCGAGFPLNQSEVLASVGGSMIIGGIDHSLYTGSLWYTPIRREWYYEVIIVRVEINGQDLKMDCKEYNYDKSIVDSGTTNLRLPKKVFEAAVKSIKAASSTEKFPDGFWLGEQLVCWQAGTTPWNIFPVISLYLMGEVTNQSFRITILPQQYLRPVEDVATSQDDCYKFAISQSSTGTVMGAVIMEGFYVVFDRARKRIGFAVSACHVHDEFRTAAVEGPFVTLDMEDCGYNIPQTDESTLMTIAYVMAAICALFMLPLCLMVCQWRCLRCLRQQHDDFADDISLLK
Outline: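 Recombinant BACE1 (1 μg/ml final) was incubated 120 minutes at room temperature with […] Mca/Dnp-labelled 13-mer APP Swedish-mutant peptide in 40 mM citrate pH 5.0, 0.04% PEG, 4% DMSO, with or without compound. Cleavage was measured as fluorescence (ex 320/em 405 nm), given as RFU difference between T120 and T0.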

SMILES	Cellular αLisa assay in SKNBE2 cells Abeta 42 pIC50 (Abeta 1-42)	melting point [°C]	Cellular αLisa assay in SKNBE2 cells Abetatotal pIC50 (Abeta total)	IC50 [1] [µM]	IC50 (Abeta 1-42) [µM]	IC50 (Abeta total) [µM]	Biochemical FRET based assay pIC50 [1]
CC1(c2cccc(-c3cncnc3)c2)N=C(N)COC1F (stereo not shown) [Compound 98]	6.19	189.3	6.14	2.82			
C[C@]1(c2cc(-c3cncnc3)c(F)cc2F)COC2(CC2)C(N)=N1 [Compound 149]		187.4		> 30.2	8.71	8.91	
C[C@]1(c2cc(NC(=O)c3ncc(Cl)cc3Cl)ccc2F)N=C(N)CO[C@]1(F)C(F)(F)F [Compound 185]		165.14		0.166	0.2	0.195	
CC1(c2cc(NC(=O)c3ncc(Cl)cc3Cl)ccc2F)N=C(N)COC1F (single isomer, unassigned) [Compound 128]	6.0	93.3	6.02	5.75			
C[C@]1(c2cc(-c3cncnc3)c(F)cc2F)N=C(N)CO[C@]1(F)C(F)(F)F [Compound 210]		> 300		12	> 10	> 10	
CC1(c2cccc(-c3ccccc3)c2)COCC(N)=N1 (racemic) (as salt: TFA) [Compound 1, rac-5-biphenyl-3-yl-5-methyl-5,6-dihydro-2H-1,4-oxazin-3-amine trifluoroacetate salt]		217.2					
CC1(c2cccc(NC(=O)c3ccc(Cl)cn3)c2)N=C(N)COC1(F)C(F)(F)F (single isomer, unassigned) [Compound 112]	5.68	207.3	5.71				
COc1cnc(C(=O)Nc2cccc(C3(C)N=C(N)COC3(F)C(F)(F)F)c2)cn1 (single isomer, unassigned) [Compound 177]	7.83		7.84	0.0251			
C[C@@]1(c2cccc(-c3cncnc3)c2)COC2(CC2)C(N)=N1 [Compound 74]				4.17	0.195	0.204	
C[C@H]1OC[C@](C)(c2cccc(NC(=O)c3ccc(Cl)cn3)c2)N=C1N (racemic) [Compound 20, trans-rac-N-[3-(5-Amino-3,6-dimethyl-3,6-dihydro-2H-1,4-oxazin-3-yl)phenyl]-5-chloropyridine-2-carboxamide]	7.81		7.86				6.78
COc1cncc(-c2cccc(C3(C)N=C(N)COC3C(F)(F)F)c2)c1 (single isomer, unassigned) [Compound 101]	7.71		7.7	0.178			
C[C@@]1(c2cc(NC(=O)c3ccc(Cl)cc3F)ccc2F)COCC(N)=N1.Cl [Compound 68]	7.06		7.04				6.35
CC1(c2cccc(NC(=O)c3ccc(Cl)cn3)c2)COC(F)(C(F)(F)F)C(N)=N1 (single isomer, unassigned) [Compound 15, (R*,R*)—N-{3-[5-amino-6-fluoro-3-methyl-6-(trifluoromethyl)-3,6-dihydro-2H-1,4-oxazin-3-yl]phenyl}-5-chloropyridine-2-carboxamide]				2.75	0.49	3.09	
Cc1ccc(C(=O)Nc2cccc(C3(C)N=C(N)COC3(F)C(F)(F)F)c2)nc1 (single isomer, unassigned) [Compound 193]	7.19		7.23	0.0741			
CC1(c2cc(NC(=O)c3ncc(Cl)cc3F)ccc2F)COCC(N)=N1 (stereo not shown) [Compound 35]	8.37		8.4				7.11
C[C@]1(c2cc(NC(=O)c3ncc(Cl)cc3F)ccc2F)N=C(N)CO[C@H]1C(F)(F)F [Compound 260]				0.0479	0.00661	0.00646	
CC1(c2cc(-c3cncnc3)ccc2F)N=C(N)COC1F (single isomer, unassigned) [Compound 127]	<5		<5	> 30.2			
NC1=N[C@@](c2cc(NC(=O)c3ncc(Cl)cc3Cl)ccc2F)(C2CC2)[C@H](C(F)(F)F)OC1 [Compound 234]				0.0251	0.0115	0.0102	
C[C@]1(c2cc(NC(=O)c3cnc(OCC(F)(F)F)cn3)ccc2F)N=C(N)CO[C@]1(F)C(F)(F)F [Compound 318]				0.355	0.851	0.724	
CC1(c2cc(-c3cncnc3)ccc2F)COCC(N)=N1 (single isomer, unassigned) [Compound 53]	5.28		<5				<4.52

SMILES	Cellular αLisa assay in SKNBE2 cells Abeta 42 pIC50 (Abeta 1-42)	melting point [°C]	Cellular αLisa assay in SKNBE2 cells Abetatotal pIC50 (Abeta total)	IC50 [1] [µM]	IC50 (Abeta 1-42) [µM]	IC50 (Abeta total) [µM]	Biochemical FRET based assay pIC50 [1]
CC1(c2cc(-c3cncc(C#N)c3)ccc2F)N=C(N)COC1C(F)(F)F (single isomer, unassigned) [Compound 266]	<5		~5	> 30.2			
C[C@@]1(c2cccc(-c3cncnc3)c2)COC2(CC2)C(N)=N1 (as salt: fumarate) [Compound 74]		193.3					
CC1(c2cc(-c3cc(Cl)cc(Cl)c3)ccn2)COCC(N)=N1 (racemic) [Compound 121]	6.43		6.48				5.73
N#Cc1cncc(-c2ccc(F)c([C@@]3(C4CC4)N=C(N)CO[C@H]3F)c2)c1 [Compound 223]				24.5	> 10	> 10	
CC#Cc1cncc(-c2ccc(F)c(C3(C4CC4)N=C(N)COC3F)c2)c1 (stereo not shown) [Compound 292]	5.98		6.17				6.17
CC1(c2cccc(NC(=O)c3ncc(Cl)cc3F)c2)N=C(N)COC1(F)C(F)(F)F (single isomer, unassigned) [Compound 175]	5.18		5.24	0.295			
N#Cc1ccc(C(=O)Nc2ccc(F)c([C@@]3(C4CC4)N=C(N)CO[C@@]3(F)C(F)(F)F)c2)nc1 [Compound 262]				0.0302	0.0692	0.0741	
COc1cncc(-c2cccc(C3(C)N=C(N)COC3F)c2)c1 (single isomer, unassigned) [Compound 92]	5.47		5.51	15.1			
CC1(c2cccc(NC(=O)c3cnc(C(F)(F)F)cn3)c2)COCC(N)=N1 (stereo not shown) [Compound 146]	7.07		7.03				6.26
CC1(c2cc(-c3cncnc3)ccc2F)N=C(N)COC1C(F)(F)F (single isomer, unassigned) [Compound 268]	7		7.09	0.363			
COc1cnc(C(=O)Nc2cccc(C3(C)N=C(N)COC3(F)C(F)(F)F)c2)cn1 (single isomer, unassigned) [Compound 176]	6.34		6.38	1.29			
Cc1ccc(C(=O)Nc2cccc(C3(C)N=C(N)COC3(F)C(F)(F)F)c2)nc1 (single isomer, unassigned) [Compound 191]	5.04		5.46	18.6			
C[C@]1(c2cccc(NC(=O)c3ccc(C#N)cn3)c2)N=C(N)CO[C@]1(F)C(F)(F)F [Compound 240]				0.0257	0.0105	0.0102	
C[C@]1(c2cccc(NC(=O)c3ncc(Cl)cc3Cl)c2)N=C(N)CO[C@]1(F)C(F)(F)F [Compound 242]				0.0204	0.0123	0.0123	
N#Cc1cncc(-c2cccc([C@@]3(C4CC4)N=C(N)CO[C@@H]3F)c2)c1 [Compound 311]				1.38	1.45	1.12	
CC1(c2cccc(NC(=O)c3ccc(Cl)cn3)c2)COC(F)(C(F)(F)F)C(N)=N1 (single isomer, unassigned) [Compound 71]	<5		<5				6.25
CC1(c2cc(NC(=O)c3ccncn3)ccc2F)COCC(N)=N1 (stereo not shown) [Compound 28]	7.07		7.04				6.18
C[C@@]1(c2cccc(NC(=O)c3ccc(Cl)cn3)c2)COC2(CC2)C(N)=N1 [Compound 73]				0.102	0.0049	0.00427	
COc1cc(Cl)ccc1C(=O)Nc1ccc(F)c([C@]2(C)COCC(N)=N2)c1 [Compound 45]	6.85		6.92				5.53
